From ChEMBL document CHEMBL5532639, “Heterocyclic pyrimidine derivatives as promising antibacterial agents” (Eur J Med Chem, 2023)
In brackets after ≈: the same amount, converted by molar mass.

Columns and labels:
Escherichia coli [1] = assay: Antimicrobial activity against Escherichia coli RCMB 010052 assessed as bacterial growth inhibition by measuring zone of inhibition at 50 ug/ml by agar cup diffusion assay; format: functional; settings: read-out: IZ
Streptococcus pneumoniae = assay: Antimicrobial activity against Streptococcus […] assessed as bacterial growth inhibition by measuring zone of inhibition at 50 ug/ml by agar cup diffusion assay; format: functional; settings: read-out: IZ
Bacillus subtilis [2] = assay: Antimicrobial activity against Bacillus subtilis RCMB 010069 assessed as bacterial growth inhibition by measuring zone of inhibition at 50 ug/ml by agar cup diffusion assay; format: functional; settings: read-out: IZ
Salmonella typhimurium = assay: Antibacterial activity against Salmonella typhimurium DT104 assessed as reduction in bacterial growth; format: functional, Salmonella enterica subsp. enterica serovar Typhimurium; settings: Salmonella enterica
Escherichia coli [3] = assay: Antibacterial activity against Escherichia coli ATCC 25922 assessed as bacterial growth inhibition; format: functional
Staphylococcus aureus [4] = assay: Antibacterial activity against Staphylococcus aureus ATCC 3750 assessed as reduction in bacterial growth; format: functional
Bacillus subtilis [5] = assay: Antibacterial activity against Bacillus subtilis 6633 assessed as reduction in bacterial growth; format: functional
Pseudomonas aeruginosa [6] = assay: Antibacterial activity against Pseudomonas aeruginosa assessed as reduction in microbial growth by measuring zone of inhibition; format: functional
Bacillus subtilis [7] = assay: Antibacterial activity against Bacillus subtilis assessed as reduction in microbial growth by measuring zone of inhibition; format: functional
Escherichia coli [8] = assay: Antibacterial activity against Escherichia coli assessed as reduction in microbial growth by measuring zone of inhibition; format: functional
Staphylococcus aureus [9] = assay: Antibacterial activity against Staphylococcus aureus assessed as reduction in microbial growth by measuring zone of inhibition; format: functional
Staphylococcus aureus [10] = assay: Antibacterial activity against Staphylococcus aureus assessed as bacterial growth inhibition by measuring zone of inhibition at 50 ug/ml by agar cup diffusion assay; format: functional; settings: read-out: IZ
Escherichia coli [11] = assay: Antibacterial activity against Escherichia coli assessed as bacterial growth inhibition by measuring zone of inhibition at 50 ug/ml by agar cup diffusion assay; format: functional; settings: read-out: IZ
Bacillus subtilis [12] = assay: Antibacterial activity against Bacillus subtilis assessed as zone of inhibition at 20 mg/ml; format: functional; settings: read-out: IZ
Sarcina = assay: Antibacterial activity against Sarcina assessed as zone of inhibition at 20 mg/ml; format: functional; settings: read-out: IZ
Staphylococcus aureus [13] = assay: Antibacterial activity against Staphylococcus aureus assessed as zone of inhibition at 20 mg/ml; format: functional; settings: read-out: IZ
Escherichia coli [14] = assay: Antibacterial activity against Escherichia coli assessed as zone of inhibition at 20 mg/ml; format: functional; settings: read-out: IZ
Serratia marcescens = assay: Antibacterial activity against Serratia marcescens assessed as zone of inhibition at 20 microg/ml; format: functional; settings: read-out: IZ
Escherichia coli [15] = assay: Antibacterial activity against Escherichia coli assessed as bacterial growth inhibition incubated for 18 hrs by CLSI protocol based Mueller-Hinton broth assay; format: functional
Pseudomonas aeruginosa [16] = assay: Antibacterial activity against Pseudomonas aeruginosa assessed as reduction in bacterial growth by broth microdilution method; format: functional
Staphylococcus aureus [17] = assay: Antibacterial activity against Staphylococcus aureus assessed as reduction in microbial growth by CLSI based broth microdilution method; format: functional
Streptococcus pyogenes [18] = assay: Antibacterial activity against Streptococcus pyogenes assessed as reduction in microbial growth by CLSI based broth microdilution method; format: functional
Pseudomonas aeruginosa [19] = assay: Antibacterial activity against Pseudomonas aeruginosa assessed as inhibition of microbial growth by broth micro-dilution method; format: functional
Escherichia coli [20] = assay: Antibacterial activity against Escherichia coli assessed as inhibition of microbial growth by broth micro-dilution method; format: functional
Staphylococcus aureus [21] = assay: Antibacterial activity against Staphylococcus aureus assessed as inhibition of microbial growth by broth micro-dilution method; format: functional
Streptococcus pyogenes [22] = assay: Antibacterial activity against Streptococcus pyogenes assessed as inhibition of microbial growth by broth micro-dilution method; format: functional

Compound: O=C1OC(c2ccc(C(=O)O)cc2)N=C1/C=C/c1ccc(C(=O)c2ccccc2)cc1 (stereo unspecified)
- zone of inhibition at 50 µg/mL (Escherichia coli [1]): 17 mm
- zone of inhibition at 50 µg/mL (Streptococcus pneumoniae): 19.3 mm
- zone of inhibition at 50 µg/mL (Bacillus subtilis [2]): 23.7 mm

Compound: O=C1OC(c2ccc(C(=O)O)cc2)N=C1/C=C/c1ccc(C(=O)c2ccc(Cl)cc2)cc1 (stereo unspecified)
- zone of inhibition at 50 µg/mL (Escherichia coli [1]): 18.2 mm
- zone of inhibition at 50 µg/mL (Streptococcus pneumoniae): 21.8 mm
- zone of inhibition at 50 µg/mL (Bacillus subtilis [2]): 24.3 mm

Compound: Cc1nc2scc(-c3ccco3)c2c(=O)n1NC(=O)c1ccc(Cl)cc1Cl
- MIC (Salmonella typhimurium): 6 µg/mL (≈ 14.3 µM)
- MIC (Escherichia coli [3]): 6 µg/mL (≈ 14.3 µM)
- MIC (Staphylococcus aureus [4]): 5 µg/mL (≈ 11.9 µM)
- MIC (Bacillus subtilis [5]): 4 µg/mL (≈ 9.52 µM)

Compound: Nc1ncccc1/C=N/Nc1nc(SCc2ccccc2)ncc1I
- inhibition zone (IZ) (Pseudomonas aeruginosa [6]): 18 mm
- inhibition zone (IZ) (Bacillus subtilis [7]): 17 mm
- inhibition zone (IZ) (Escherichia coli [8]): 7 mm
- inhibition zone (IZ) (Staphylococcus aureus [9]): 18 mm

Compound: Oc1ccccc1/C=N/Nc1nc(SCc2ccccc2)ncc1I
- inhibition zone (IZ) (Pseudomonas aeruginosa [6]): 18 mm
- inhibition zone (IZ) (Bacillus subtilis [7]): 13 mm
- inhibition zone (IZ) (Escherichia coli [8]): 7 mm
- inhibition zone (IZ) (Staphylococcus aureus [9]): 15 mm

Compound: O=C(CSc1nnc(-c2cccnc2N2CCOCC2)o1)Nc1nc(-c2ccc(F)cc2)cc(-c2cc(F)c(Cl)cc2Cl)n1
- zone of inhibition at 50 µg/mL (Staphylococcus aureus [10]): 11 mm
- zone of inhibition at 50 µg/mL (Escherichia coli [11]): 11 mm

Compound: O=C1OC(c2ccc(C(=O)O)cc2)N=C1/C=C/c1ccc(C(=O)c2ccco2)cc1 (stereo unspecified)
- zone of inhibition at 50 µg/mL (Escherichia coli [1]): 16.7 mm
- zone of inhibition at 50 µg/mL (Streptococcus pneumoniae): 19.3 mm
- zone of inhibition at 50 µg/mL (Bacillus subtilis [2]): 21.2 mm

Compound: CN[C@@H]1[C@H](O[C@H]2[C@H](O[C@H]3[C@H](O)[C@@H](O)[C@H](N=C(N)N)[C@@H](O)[C@@H]3N=C(N)N)O[C@@H](C)[C@]2(O)C=O)O[C@@H](CO)[C@H](O)[C@H]1O [STREPTOMYCIN]
- zone of inhibition at 20000 µg/mL (Bacillus subtilis [12]): 18 mm
- zone of inhibition at 20000 µg/mL (Sarcina): 18 mm
- zone of inhibition at 20000 µg/mL (Staphylococcus aureus [13]): 18 mm
- zone of inhibition at 20000 µg/mL (Escherichia coli [14]): 18 mm
- zone of inhibition at 20 µg/mL (Serratia marcescens): 18 mm

Compound: O=[N+]([O-])c1ccc(Nc2nc(Nc3ccc(S(=O)(=O)Nc4ncccn4)cc3)nc(N3CCCCC3)n2)cc1
- MIC (Escherichia coli [15]): 25 µg/mL (≈ 45.6 µM)
- MIC (Pseudomonas aeruginosa [16]): 50 µg/mL (≈ 91.1 µM)
- MIC (Staphylococcus aureus [17]): 100 µg/mL
- MIC (Streptococcus pyogenes [18]): 100 µg/mL

Compound: COc1ccc(-c2cc(-c3ccc(Oc4ccccc4)cc3)nc(SCC(=O)Nc3nc4ccc(S(=O)(=O)O)cc4s3)n2)cc1
- MIC (Pseudomonas aeruginosa [19]): 50 µg/mL
- MIC (Escherichia coli [20]): 62.5 µg/mL
- MIC (Staphylococcus aureus [21]): 100 µg/mL
- MIC (Streptococcus pyogenes [22]): 100 µg/mL

Compound: Cc1ccc(Nc2c(C#N)c(N)nc3c(/N=N/c4ccc(S(=O)(=O)Nc5ncc(C)cn5)cc4)c(=O)[nH]n23)cc1
- zone of inhibition at 20000 µg/mL (Bacillus subtilis [12]): 9 mm
- zone of inhibition at 20000 µg/mL (Sarcina): 15 mm
- zone of inhibition at 20000 µg/mL (Staphylococcus aureus [13]): 12 mm
- zone of inhibition at 20000 µg/mL (Escherichia coli [14]): 12 mm
- zone of inhibition at 20 µg/mL (Serratia marcescens): 15 mm

Compound: CSc1c(C#N)c(N)nc2c(/N=N/c3ccc(S(=O)(=O)Nc4ncccn4)cc3)c(=O)[nH]n12
- zone of inhibition at 20000 µg/mL (Bacillus subtilis [12]): 9 mm
- zone of inhibition at 20000 µg/mL (Sarcina): 12 mm
- zone of inhibition at 20000 µg/mL (Staphylococcus aureus [13]): 9 mm
- zone of inhibition at 20000 µg/mL (Escherichia coli [14]): 15 mm
- zone of inhibition at 20 µg/mL (Serratia marcescens): 15 mm

Compound: CCOC(=O)c1ccc(Nc2nc(Nc3ccc(S(=O)(=O)Nc4ncccn4)cc3)nc(N3CCCCC3)n2)cc1
- MIC (Escherichia coli [15]): 25 µg/mL (≈ 43.4 µM)
- MIC (Pseudomonas aeruginosa [16]): 25 µg/mL (≈ 43.4 µM)
- MIC (Staphylococcus aureus [17]): 100 µg/mL
- MIC (Streptococcus pyogenes [18]): 100 µg/mL

Compound: CCn1cc(C(=O)O)c(=O)c2cc(F)c(N3CCNCC3)cc21 [NORFLOXACIN]
- MIC (Pseudomonas aeruginosa [19]): 10 µg/mL
- MIC (Escherichia coli [20]): 10 µg/mL
- MIC (Staphylococcus aureus [21]): 10 µg/mL
- MIC (Streptococcus pyogenes [22]): 10 µg/mL

Compound: O=C1OC(c2ccc(C(=O)O)cc2)N=C1/C=C/c1ccc(C(=O)c2cccs2)cc1 (stereo unspecified)
- zone of inhibition at 50 µg/mL (Escherichia coli [1]): 17.9 mm
- zone of inhibition at 50 µg/mL (Streptococcus pneumoniae): 18.6 mm
- zone of inhibition at 50 µg/mL (Bacillus subtilis [2]): 22.3 mm

Compound: COc1ccc(/C=N/Nc2nc(SCc3ccccc3)ncc2I)cc1O
- inhibition zone (IZ) (Pseudomonas aeruginosa [6]): 19 mm
- inhibition zone (IZ) (Bacillus subtilis [7]): 13 mm
- inhibition zone (IZ) (Escherichia coli [8]): 4 mm
- inhibition zone (IZ) (Staphylococcus aureus [9]): 12 mm

Compound: O=[N+]([O-])c1ccc(Nc2nc(SCc3ccccc3)ncc2I)cc1
- inhibition zone (IZ) (Pseudomonas aeruginosa [6]): 10 mm
- inhibition zone (IZ) (Bacillus subtilis [7]): 14 mm
- inhibition zone (IZ) (Escherichia coli [8]): 5 mm
- inhibition zone (IZ) (Staphylococcus aureus [9]): 16 mm

Compound: COc1ccc(-c2cc(-c3ccc(Oc4ccccc4)cc3)nc(SCC(=O)Nc3nc4ccc(OC)cc4s3)n2)cc1
- MIC (Pseudomonas aeruginosa [19]): 25 µg/mL
- MIC (Escherichia coli [20]): 25 µg/mL
- MIC (Staphylococcus aureus [21]): 50 µg/mL
- MIC (Streptococcus pyogenes [22]): 50 µg/mL

Compound: COc1cc(-c2cc(-c3cc(F)c(Cl)cc3Cl)nc(NC(=O)CSc3nnc(-c4cccnc4N4CCOCC4)o3)n2)cc(OC)c1OC
- zone of inhibition at 50 µg/mL (Staphylococcus aureus [10]): 9 mm
- zone of inhibition at 50 µg/mL (Escherichia coli [11]): 14 mm
